Structures can show the parent of a compound that is named as a salt. Where two headings read alike, the source gives them in different places.
What was measured:
plasma proteins [1] = assay: Mass balance UF, plasma protein binding; conditions: for Plasma protein binding (%): Mass balance UF, rat plasma, mean (±SD)
Protocol: Washing procedures were performed in accordance with established methods for conventional ultrafiltration. Further procedures were conducted as per the protocols outlined by Wang and Williams. […] Following centrifugation, the filter was carefully detached from the FT tube, and the filtrate was removed. The filter was then inverted and transferred to a new retentate collection tube (RT tube), where it underwent a second centrifugation at 1000× g for 2 min at 25 °C. The retentate was subsequently extracted from the RT tube (Figure 2A).
In this equation, CR and VR represent the concentration and volume of the retentate obtained from the final RT tube, while CF and VF denote the concentration and volume of the filtrate collected from the FT tube.

[2] = cited from earlier work
plasma proteins [3] = assay: Sequential UF, plasma protein binding; conditions: for Plasma protein binding (%): Sequential UF, rat plasma, mean (±SD)
Protocol: (§2) Rat plasma was collected from male Sprague Dawley rats purchased from Orient Bio Inc. (Seongnam, Republic of Korea). The plasma was separated from whole blood samples using centrifugation and was utilized immediately for the PPB test.
(§3) All compounds, with the exception of otaplimastat and ciclopirox, were added to 1 mL of blank plasma to achieve a drug concentration of 10 μM. Otaplimastat and ciclopirox were examined at concentrations of 5 μM and 1 μg/mL, respectively. The compound-added plasma samples were incubated in a water bath at 37 °C and agitated at 50 rpm for two hours prior to the PPB test.
(§4) A volume of 0.5 mL of the plasma sample was initially loaded onto the filter within the FT tube. The tube was then subjected to centrifugation at 14,000× g for 2 min at a temperature of 25 °C, serving as the pre-ultrafiltration (pre-UF) step.
(§5) The bound and unbound plasma fractions were subjected to linear regression analysis, with the regression line established by constraining the y-intercept to zero [14].

Log p (lipophilicity) = type: physicochemical; conditions: in-house unpublished data
From the text: Table 2 Log p value of the test compounds. | column: Log p

plasma proteins [4] = conditions: male, Sprague Dawley, rat, 2 h, 10 μM
Protocol: as §2, §3, §4, §5

plasma proteins [5] = assay: Conventional UF without NSB correction, plasma protein binding; type: in vitro ADME, rat; conditions: male, Sprague Dawley
Protocol: (§1) The device used in the experiment was Amicon® Ultra, which is commonly used in UF experiments. UF was conducted following the manufacturer's user guide. Briefly, the centrifugal filter units were washed once with 0.1N NaOH and then twice with double-distilled water by centrifugation at 14,000× g for 15 min. […] The exact process was performed using phosphate-buffered saline (PBS) instead of plasma to obtain a filtrate solution for correction with PBS [13].

plasma proteins [6] = assay: Conventional UF with NSB correction using PBS, plasma protein binding; type: in vitro ADME; conditions: male, Sprague Dawley, rat plasma, conventional UF with NSB correction by PBS, mean ± SD, read-out: percentage of PPB (converted)
Protocol: as §1, with “[13]. […] In this equation, CSB indicates the concentration of the buffer sample, while CFB signifies the concentration of the filtrate sample derived from ultrafiltration using the buffer.” for “[13].”

plasma proteins [7] = system: plasma proteins; design: method as in PMID 11709325; conditions: equilibrium dialysis; cited from earlier work
[8] = male, Sprague Dawley, rat, plasma

Question: Which fraction unbound at 2 h, 1 μg/mL (plasma proteins [1]; [8]) does the source give for `Cc1cc(C2CCCCC2)n(O)c(=O)c1` [Ciclopirox] here?
Answer: 0.0285

Question: What about the Log p [2] of the same compound?
Answer: 2.73

Question: What about the fraction unbound at 2 h, 1 μg/mL (plasma proteins [3]; [8]) of the same compound?
Answer: 0.0129

Question: For `CCc1c2c(nc3ccc(OC(=O)N4CCC(N5CCCCC5)CC4)cc13)-c1cc3c(c(=O)n1C2)COC(=O)[C@]3(O)CC` [Irinotecan, irinotecan hydrochloride], which Log p [2] is on record?
Answer: 4.18

Question: Which results are given for `CC(=O)N(CCCCNCCCn1c(=O)[nH]c2ccccc2c1=O)CCCn1c(=O)[nH]c2ccccc2c1=O` [Otaplimastat]?
Answer: Plasma protein binding (%) (plasma proteins [1]; 5 μM): 50.63 (±11.71) %; Log p (Log p (lipophilicity)): 2.67; Plasma protein binding (%) (plasma proteins [3]; 5 μM): 57.61 (±3.39) %

Question: For `O=c1c(O)c(-c2ccc(O)c(O)c2)oc2cc(O)cc(O)c12` [Quercetin, quercetin], which “difference between CR and CF (retentate and filtrate concentration)” value (plasma proteins [1]; male, Sprague Dawley, rat, 2 h, 10 μM) is on record?
Answer: 1000 fold

Question: What about the fraction unbound at 2 h, 10 μM (plasma proteins [1]; [8]) of the same compound?
Answer: 0.0039

Question: And the “absolute difference in PPB between sequential UF and mass balance UF” value (plasma proteins [4])?
Answer: 0.31%

Question: What about the Log p [2] of the same compound?
Answer: 1.82

Question: What about the fraction unbound at 2 h, 10 μM (plasma proteins [3]; [8]) of the same compound?
Answer: 0.0008

Question: For `COC(=O)c1ccccc1-c1c2ccc(=N)cc-2oc2cc(N)ccc12` [Rhodamine 123, rhodamine 123], which fraction unbound at 2 h, 10 μM (plasma proteins [5]; rat plasma, conventional UF without NSB correction, mean ± SD, read-out: percentage of PPB (converted)) is on record?
Answer: 0.103

Question: What about the “excess of PPB by conventional UF without NSB correction over PPB with NSB correction using PBS” value (plasma proteins [5]; rat, 2 h, 10 μM) of the same compound?
Answer: 22.6%

Question: And the fraction unbound at 2 h, 10 μM (plasma proteins [6])?
Answer: 0.33

Question: And the fraction unbound at 2 h, 10 μM (plasma proteins [1]; [8])?
Answer: 0.3

Question: What about the “protein binding, literature value” (plasma proteins [7]) of the same compound?
Answer: 70%

Question: What about the Log p [2] of the same compound?
Answer: 1.06

Question: And the fraction unbound at 2 h, 10 μM (plasma proteins [3]; [8])?
Answer: 0.25

Question: For `CCc1c2c(nc3ccc(O)cc13)-c1cc3c(c(=O)n1C2)COC(=O)[C@]3(O)CC` [SN-38], which “Plasma protein binding (%)” value (plasma proteins [1]; 10 μM) is on record?
Answer: 95.69 (±1.58) %

Question: What about the Log p [2] of the same compound?
Answer: 2.31

Question: What about the “Plasma protein binding (%)” value (plasma proteins [3]; 10 μM) of the same compound?
Answer: 95.47 (±0.88) %

— article PMC11859236, “A Sequential Ultrafiltration Method to Enhance the Accuracy and Throughput in Plasma Protein Binding Tests” (Pharmaceutics, 2025)
